For one assay, the target named is TAF1-BD1 (Homo sapiens, UniProt P21675). The assay can be described thus: TAF1-BD1 TR-FRET Binding Assay. The note with it: read-out: TAF1-BD1 HTRF IC50. As for the experimental part: IC50 Measurements for Inhibitors Using TAF1-BD1 TR-FRET Binding Assay
His/Flag epitope tagged TAF1-BD11381-1497 was cloned, expressed, and purified to homogeneity. TAF1-BD binding and inhibition was assessed by monitoring the engagement of a biotinylated small molecule compound 1000 with the target using the TR-FRET assay technology (Perkin-Elmer). Specifically, in a 384 well ProxiPlate, TAF1-BDI (0.08 uM final) in 50 mM HEPES (pH 7.5; final), 50 mM NaCl (final), 1 mM TCEP (final), 0.1 mg/mL BSA (final), and 0.069 mM Brij-35 (final) was added either in the presence of DMSO (final 0.2% DMSO) or compound dilution series in DMSO. After a 10 minute incubation at room temperature, biotin-ligand (0.08 uM final) was added. After 10 minutes incubation at room temperature, a mixture Eu-W1024 Anti-6×His antibody (Perkin Elmer ADO 110) and SureLight™ Streptavidin-Allophycocyanin (SA-APC, Perkin Elmer CR130-100) were added to final concentrations of 0.2 nM antibody and 0.05 uM SA-APC, respectively. After forty minutes of equilibration at room temperature, the plates were read on an Envision instrument and IC50s calculated using a four parameter logistic model (XLFIT).

The target of a further assay is TAF1-BD2 (Homo sapiens, UniProt P21675). The assay can be described thus: TAF1-BD2 TR-FRET Binding Assay. The following applies: read-out: TAF1-BD2 HTRF IC50. As for the experimental part:
IC50 Measurements for Inhibitors Using TAF1-BD2 TR-FRET Binding Assay
His/Flag epitope tagged TAF1-BD21504-1635 was cloned, expressed, and purified to homogeneity. TAF1-BD2 binding and inhibition was assessed by monitoring the engagement of a biotinylated small molecule compound 1000 with the target using the TR-FRET assay technology (Perkin-Elmer). Specifically, in a 384 well ProxiPlate, TAF1-BD2 (0.012 uM final) in 50 mM HEPES (pH 7.5; final), 50 mM NaCl (final), 1 mM TCEP (final), 0.1 mg/mL BSA (final), and 0.069 mM Brij-35 (final) was added either in the presence of DMSO (final 0.2% DMSO) or compound dilution series in DMSO. After a 10 minute incubation at room temperature, biotin-ligand (0.04 uM final) was added. After 10 minutes incubation at room temperature, a mixture Eu-W1024 Anti-6×His antibody (Perkin Elmer AD0110) and SureLight™ Streptavidin-Allophycocyanin (SA-APC, Perkin Elmer CR130-100) were added to a final concentration of 0.2 nM antibody and 0.025 uM SA-APC, respectively. After forty minutes of equilibration at room temperature, the plates were read on an Envision instrument and IC50s calculated using a four parameter logistic model (XLFIT).
In general terms: Time-resolved FRET reads energy transfer from a long-lived donor to a nearby acceptor.

As a reminder, the IC50 is the concentration needed to halve the response being measured.

Regarding `CCOC(=O)c1c(C)[nH]c2c(=O)n(C)cc(C#CC(O)(c3cccc(-c4cc[nH]n4)c3)C(F)(F)F)c12` (stereo not drawn) [Example 44, ethyl 2,6-dimethyl-7-oxo-4-[4,4,4-trifluoro-3-hydroxy-3-[3-(1H-pyrazol-3-yl)phenyl]but-1-ynyl]-1H-pyrrolo[2,3-c]pyridine-3-carboxylate], the IC50 on TAF1-BD1 was found to be 0.226 µM; on TAF1-BD2, 0.017 µM.

Turning to `CCOC(=O)c1c(C)[nH]c2c(=O)n(C)cc(C#CC(O)(C3CC3)C(F)(F)F)c12` (stereo not drawn) [Example 45, ethyl 4-(3-cyclopropyl-4,4,4-trifluoro-3-hydroxy-but-1-ynyl)-2,6-dimethyl-7-oxo-1H-pyrrolo[2,3-c]pyridine-3-carboxylate], the IC50 on TAF1-BD1 was found to be 0.271 µM; on TAF1-BD2 it was 0.0747 µM.

Consider `C=CCCn1cc(C#CC(C)(O)C2CC2)c2c(C(=O)OCC)c(C)[nH]c2c1=O` (stereo not drawn) [Example 46, ethyl 6-but-3-enyl-4-(3-cyclopropyl-3-hydroxy-but-1-ynyl)-2-methyl-7-oxo-1H-pyrrolo[2,3-c]pyridine-3-carboxylate], for which the IC50 was 2.23 µM on TAF1-BD1 and 0.133 µM at TAF1-BD2.

As to `C=CCCn1cc(C#CC(C)(C)CO)c2c(C(=O)OCC)c(C)[nH]c2c1=O` [Example 47, ethyl 6-but-3-enyl-4-(4-hydroxy-3,3-dimethyl-but-1-ynyl)-2-methyl-7-oxo-1H-pyrrolo[2,3-c]pyridine-3-carboxylate], the IC50 on TAF1-BD1 was 4.9 µM; at TAF1-BD2, 0.368 µM.

Consider `C=CCCn1cc(C#CC(C)(C)C(N)=O)c2c(C(=O)OCC)c(C)[nH]c2c1=O` [Example 48, ethyl 4-(4-amino-3,3-dimethyl-4-oxo-but-1-ynyl)-6-but-3-enyl-2-methyl-7-oxo-1H-pyrrolo[2,3-c]pyridine-3-carboxylate], for which the values for the IC50 on TAF1-BD1 and at TAF1-BD2 were 1.28 µM and 0.312 µM, respectively.

Consider `C=CCCn1cc(C#CC(C)(C)O)c2c(C(=O)OCC)c(C)[nH]c2c1=O` [Example 49, ethyl 6-but-3-enyl-4-(3-hydroxy-3-methyl-but-1-ynyl)-2-methyl-7-oxo-1H-pyrrolo[2,3-c]pyridine-3-carboxylate], for which the figures for the IC50 on TAF1-BD1 and on TAF1-BD2 were 2.85 µM and 0.116 µM, respectively.

Consider `CCOC(=O)c1c(C)[nH]c2c(=O)n(CC)cc(C#CC(C)(C)O)c12` [Example 50, ethyl 6-ethyl-4-(3-hydroxy-3-methyl-but-1-ynyl)-2-methyl-7-oxo-1H-pyrrolo[2,3-c]pyridine-3-carboxylate], for which the IC50 was determined as 9.87 µM at TAF1-BD1 and 0.45 µM at TAF1-BD2.

Consider `C=CCn1cc(C#CC(C)(C)O)c2c(C(=O)OCC)c(C)[nH]c2c1=O` [Example 51, ethyl 6-allyl-4-(3-hydroxy-3-methyl-but-1-ynyl)-2-methyl-7-oxo-1H-pyrrolo[2,3-c]pyridine-3-carboxylate], for which the values for the IC50 on TAF1-BD1 and on TAF1-BD2 were 7.2 µM and 0.227 µM, respectively.

For `CCOC(=O)c1c[nH]c2c(=O)n(C)cc(C#CC(C)(C)O)c12` [Example 53, ethyl 4-(3-hydroxy-3-methyl-but-1-ynyl)-6-methyl-7-oxo-1H-pyrrolo[2,3-c]pyridine-3-carboxylate], the IC50 at TAF1-BD1 was 0.859 µM; at TAF1-BD2, 0.0952 µM.

`Cc1cc([C@](C)(O)C#Cc2cn(C)c(=O)c3[nH]cc(C(=O)OCC(C)C)c23)no1` [Example 54, isobutyl 4-[(3R)-3-hydroxy-3-(5-methylisoxazol-3-yl)but-1-ynyl]-6-methyl-7-oxo-1H-pyrrolo[2,3-c]pyridine-3-carboxylate]: the IC50 stood at 0.179 µM at TAF1-BD1 and 0.122 µM at TAF1-BD2.

In the case of `CCOC(=O)c1c(C)[nH]c2c(=O)n(C)cc(C#Cc3ccccc3)c12` [Example 55, ethyl 2,6-dimethyl-7-oxo-4-(2-phenylethynyl)-1H-pyrrolo[2,3-c]pyridine-3-carboxylate], the 50% inhibitory concentration (IC50) on TAF1-BD1 came out at 0.457 µM; at TAF1-BD2, 0.074 µM.

For `CCOC(=O)c1c(C)[nH]c2c(=O)n(C)cc(C#Cc3cncn3C)c12` [Example 56, ethyl 2,6-dimethyl-4-[2-(3-methylimidazol-4-yl)ethynyl]-7-oxo-1H-pyrrolo[2,3-c]pyridine-3-carboxylate], the IC50 turned out to be 0.337 µM at TAF1-BD1 and 0.129 µM on TAF1-BD2.

With `CCOC(=O)c1c(C)[nH]c2c(=O)n(C)cc(C#Cc3ccccc3OC(F)(F)F)c12` [Example 57, ethyl 2,6-dimethyl-7-oxo-4-[2-[2-(trifluoromethoxy)phenyl]ethynyl]-1H-pyrrolo[2,3-c]pyridine-3-carboxylate], the IC50 at TAF1-BD1 is more than 20 µM; on TAF1-BD2, 0.0596 µM.

For the molecule `CCOC(=O)c1c(C)[nH]c2c(=O)n(C)cc(C#Cc3ccc(OC)cc3)c12` [Example 58, ethyl 4-[2-(4-methoxyphenyl)ethynyl]-2,6-dimethyl-7-oxo-1H-pyrrolo[2,3-c]pyridine-3-carboxylate], the IC50 was found to be 0.315 µM at TAF1-BD1 and 0.0384 µM at TAF1-BD2.

For `CCOC(=O)c1c(C)[nH]c2c(=O)n(C)cc(C#Cc3ccccc3F)c12` [Example 59, ethyl 4-[2-(2-fluorophenyl)ethynyl]-2,6-dimethyl-7-oxo-1H-pyrrolo[2,3-c]pyridine-3-carboxylate], the IC50 is more than 2.22 µM at TAF1-BD1 and 0.0562 µM on TAF1-BD2.

For `CCOC(=O)c1c(C)[nH]c2c(=O)n(C)cc(C#Cc3cccc(N)c3)c12` [Example 60, ethyl 4-[2-(3-aminophenyl)ethynyl]-2,6-dimethyl-7-oxo-1H-pyrrolo[2,3-c]pyridine-3-carboxylate], the results for the IC50 on TAF1-BD1 and on TAF1-BD2 were 0.12 µM and 0.0381 µM, respectively.

As to `CCOC(=O)c1c(C)[nH]c2c(=O)n(C)cc(C#Cc3cccnc3)c12` [Example 61, ethyl 2,6-dimethyl-7-oxo-4-[2-(3-pyridyl)ethynyl]-1H-pyrrolo[2,3-c]pyridine-3-carboxylate], the IC50 on TAF1-BD1 stood at 0.292 µM; on TAF1-BD2, 0.0477 µM.

In the case of `CCOC(=O)c1c(C)[nH]c2c(=O)n(C)cc(C#Cc3ccsc3)c12` [Example 62, ethyl 2,6-dimethyl-7-oxo-4-[2-(3-thienyl)ethynyl]-1H-pyrrolo[2,3-c]pyridine-3-carboxylate], the values for the IC50 at TAF1-BD1 and at TAF1-BD2 were 0.402 µM and 0.0579 µM, respectively.

In the case of `CCOC(=O)c1c(C)[nH]c2c(=O)n(C)cc(C#Cc3cccc(O)c3)c12` [Example 63, ethyl 4-[2-(3-hydroxyphenyl)ethynyl]-2,6-dimethyl-7-oxo-1H-pyrrolo[2,3-c]pyridine-3-carboxylate], the values for the IC50 at TAF1-BD1 and at TAF1-BD2 were 0.195 µM and 0.0385 µM, respectively.

For `CCOC(=O)c1c(C)[nH]c2c(=O)n(C)cc(C#C[C@@](C)(O)c3nnc(C)o3)c12` [Example 64, ethyl 4-[(3R)-3-hydroxy-3-(5-methyl-1,3,4-oxadiazol-2-yl)but-1-ynyl]-2,6-dimethyl-7-oxo-1H-pyrrolo[2,3-c]pyridine-3-carboxylate], the IC50 turned out to be 0.502 µM at TAF1-BD1 and 0.16 µM on TAF1-BD2.

As to `CCOC(=O)c1c(C)[nH]c2c(=O)n(C)cc(C#C[C@@](C)(O)c3cc(C)no3)c12` [Example 69, ethyl 4-[(3R)-3-hydroxy-3-(3-methylisoxazol-5-yl)but-1-ynyl]-2,6-dimethyl-7-oxo-1H-pyrrolo[2,3-c]pyridine-3-carboxylate], the results for the IC50 on TAF1-BD1 and on TAF1-BD2 were 0.21 µM and 0.061 µM, respectively.

Turning to `CCOC(=O)c1c(C)[nH]c2c(=O)n(C)cc(C#CC(C)(O)C(C)C)c12` (stereo not drawn) [Example 70, ethyl 4-(3-hydroxy-3,4-dimethyl-pent-1-ynyl)-2,6-dimethyl-7-oxo-1H-pyrrolo[2,3-c]pyridine-3-carboxylate], the values for the half-inhibitory concentration (IC50) at TAF1-BD1 and on TAF1-BD2 were 0.515 µM and 0.0823 µM, respectively.

Regarding `C=CCCn1cc(C#C[C@](C)(O)c2cc(C)on2)c2c(C(=O)OCC)c(C)[nH]c2c1=O` [Example 71, ethyl 6-but-3-enyl-4-[(3S)-3-hydroxy-3-(5-methylisoxazol-3-yl)but-1-ynyl]-2-methyl-7-oxo-1H-pyrrolo[2,3-c]pyridine-3-carboxylate], the figures for the IC50 on TAF1-BD1 and on TAF1-BD2 were 2.51 µM and 0.19 µM, respectively.

On to `C=CCCn1cc(C#CC(C)(O)CC#N)c2c(C(=O)OCC)c(C)[nH]c2c1=O` (stereo not drawn) [Example 72, ethyl 6-but-3-enyl-4-(4-cyano-3-hydroxy-3-methyl-but-1-ynyl)-2-methyl-7-oxo-1H-pyrrolo[2,3-c]pyridine-3-carboxylate], for which the IC50 is more than 20 µM at TAF1-BD1 and 0.181 µM on TAF1-BD2.

The record behind these values is US10202378B2, “Therapeutic compounds and uses thereof” (GENENTECH, INC., priority 2015, dated 2019).
